We go through two compounds from patent publication US20240207396A1 (priority 2021, published 2024).

One experiment relates to C. albicans. The class given is in vivo. The note with it: immunocompromised mice; for Survival rate: 7 days after fatal dose of C. albicans by tail vein at week 8; for Survival number after 7 days: fatal dose of C. albicans by tail vein at week 8, 20 mice per group, fluconazole 50 mg/kg d intragastric for 7 days.
In experiment [1] the test system is Th17 cells (cytokine IL-17F). The note with it: in words; after immunization vs. blank control group.
Description: The effectiveness of the vaccine was studied by using an immunocompromised (neutropenia) mouse model. […] To investigate the T cell-mediated immune response, mouse blood was taken and detected for a change in cytokine IL-17F level in Th17 cells to evaluate the immunogenicity of chitosan oligosaccharide-carrier protein vaccine.
6-8-week-old Balb/c female mice were selected, and adaptively fed for 3-7 d. 20 g/L cyclophosphamide was prepared with normal saline, and the cyclophosphamide was injected intraperitoneally by body weight of 200 mg/kg. The number of neutrophils in the mouse blood was measured by a SYSMEX XT-2000i automatic blood analyzer after 3 days. If the number of the neutrophils was <500/mm^3, the experiment could be continued. After that, the cyclophosphamide was injected every 10 days at a dose of 150 mg/kg, which was maintained throughout the test period.
A normal saline blank control group, a KLH group, a chitosan oligosaccharide group, a chitosan oligosaccharide-KLH group in Example 6, a fluconazole group (as a positive control of a challenge test) were set up, with 10 mice in each group. At weeks 0, 2, 4 and 6 at the start of the experiment, the mice were injected subcutaneously from multiple points on the neck and back, with an injection amount of 2.5 mg/kg. The normal saline blank group was injected with normal saline, and the fluconazole group was not injected. […]

With `OC(Cn1cncn1)(Cn1cncn1)c1ccc(F)cc1F` [Fluconazole, fluconazole, reference compound], in the experiment with C. albicans, the Survival rate came out at 50% and the “Survival number after 7 days” value is on record as 10.
Consider keyhole limpet hemocyanin [KLH], for which, in the experiment with C. albicans, the Survival rate was determined as 30% and the “Survival number after 7 days” value was 6. Besides, in experiment [1], the “Change of proportion of intracellular IL-17F compared with blank control group” value was “increased to a certain extent”.
